In US20230339890A1, “AMINO ALCOHOL COMPOUNDS AND USES THEREOF” (Kineta, Inc., priority 2020, published 2023):
pIC50: −log10 of the molar value.

target: Recombinant human CYP51A1 (lanosterol-14a-demethylase) (Homo sapiens (Human), UniProt Q16850); test: Inhibition of CYP51A1, fluorescent substrate BOMCC; assay type: biochemical; conditions: recombinant human CYP51A1 coexpressed with CYP reductase in bacterial membranes, 8-point concentration-response, read-out: CYP51 IC50
Description: Method: Recombinant human CYP51A1 (lanosterol-14a-demethylase) enzyme was coexpressed with CYP reductase in bacterial membranes and the fluorescent substrate BOMCC (a nonnatural substrate that causes increases in fluorescence upon CYP51A1-dependent demethylation) was used to obtain 8-point dose concentration-response curves for each compound.

Chain of Recombinant human CYP51A1 (lanosterol-14a-demethylase) (Q16850 whole entry): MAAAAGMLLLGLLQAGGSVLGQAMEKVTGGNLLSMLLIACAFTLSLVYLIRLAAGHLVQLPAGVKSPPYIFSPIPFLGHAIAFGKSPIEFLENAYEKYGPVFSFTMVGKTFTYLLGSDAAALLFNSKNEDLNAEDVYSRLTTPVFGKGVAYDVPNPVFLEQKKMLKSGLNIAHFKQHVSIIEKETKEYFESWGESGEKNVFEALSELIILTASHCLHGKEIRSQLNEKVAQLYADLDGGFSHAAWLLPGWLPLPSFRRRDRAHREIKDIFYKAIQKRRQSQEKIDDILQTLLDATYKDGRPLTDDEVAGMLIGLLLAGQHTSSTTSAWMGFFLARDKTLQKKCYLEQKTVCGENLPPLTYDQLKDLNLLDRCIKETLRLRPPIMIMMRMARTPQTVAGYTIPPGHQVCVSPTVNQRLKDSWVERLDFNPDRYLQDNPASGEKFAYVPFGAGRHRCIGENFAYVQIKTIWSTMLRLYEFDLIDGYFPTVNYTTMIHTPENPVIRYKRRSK

| pIC50 | Structure (SMILES) |
| --- | --- |
| 6.00 to 7.00 | COC(=O)N(CCc1ccc(Cl)c(Cl)c1)CC(O)c1cccnc1 (stereo not shown) [compound 83, Methyl N-[2-(3,4-dichlorophenyl)ethyl] -N-[2-hydroxy-2-(3-pyridyl)ethyl]carbam ate] |
| 6.00 to 7.00 | O=C(Cc1ccc(C(F)(F)F)nc1)N(CC(O)c1cnccn1)C1CCC1 (stereo not shown) [compound 85] |
| 6.00 to 7.00 | O=C(Cc1ccc(Cl)c(Cl)c1)N(C[C@@H](O)c1cccnc1)C1CC1 [compound 86, N-cyclopropyl-2-(3,4-dichlorophenyl)-N-[(2S)-2-hydroxy-2-(3-pyridyl)ethyl]acetamide] |
| 6.00 to 7.00 | O=C(Cc1ccc(C(F)(F)F)nc1)N(CC1CCC1)CC(O)c1cccnn1 (stereo not shown) [compound 87] |
| < 6.00 | Cc1ccncc1C(O)CN(CC1COC1)C(=O)Cc1ccc(C(F)(F)F)nc1 (stereo not shown) [compound 89, N-[2-hydroxy-2-(4-methyl-3-pyridyl)ethyl] -N-(oxetan-3-ylmethyl)-2-[6-(trifluoromethyl)-3-pyridyl]acetamide] |
| ≥ 7.00 | CC(C)c1ccncc1C(O)CN(CC1COC1)C(=O)Cc1ccc(C(F)(F)F)nc1 (stereo not shown) [compound 90, N-[2-hydroxy-2-(4-isopropyl-3-pyridyl)ethyl]-N-(oxetan-3-ylmethyl)-2-[6-(trifluoromethyl)-3-pyridyl]acetamide] |
| < 6.00 | CCC(=O)N(C[C@@H](O)c1cccnc1)C1Cc2cnc(C(F)(F)F)cc2C1 (stereo partly drawn) [compound 93, N-[(2S)-2-hydroxy-2-(3-pyridyl)ethyl]-N-[3-(trifluoromethyl)-6,7-dihydro-5H-cyclopenta[c]pyridin-6-yl]propanamide] |
| 6.00 to 7.00 | CC(C)N(C[C@@H](O)c1cccnc1)C(=O)Cc1cnc(C(F)(F)F)nc1 [compound 94, N-[(2S)-2-hydroxy-2-(3-pyridyl)ethyl]-N-isopropyl-2-[2-(trifluoromethyl)pyrimidin-5-yl]acetamide] |
| 6.00 to 7.00 | CCCN(CC(O)c1cccnc1)C(=O)Cc1ccc(F)c(F)c1 (stereo not shown) [compound 95, 2-(3,4-difluorophenyl)-N-(2-hydroxy-2-(pyridin-3-yl)ethyl)-N-propylacetamide] |
| 6.00 to 7.00 | CCCN(CC(O)c1cnccn1)C(=O)Cc1ccc(Cl)c(Cl)c1 (stereo not shown) [compound 96] |
| ≥ 7.00 | CCCN(CC(O)c1cccnn1)C(=O)Cc1ccc(Cl)c(Cl)c1 (stereo not shown) [compound 97] |
| ≥ 7.00 | CCCN(C[C@@H](O)c1cccnc1)C(=O)C1CCc2cc(Cl)c(Cl)cc2C1 (stereo partly drawn) [compound 98, 6,7-dichloro-N-[(2S)-2-hydroxy-2-(3-pyridyl)ethyl]-N-propyl-tetralin-2-carboxamide] |
| 6.00 to 7.00 | CCCN(C[C@@H](O)c1cccnc1)C(=O)Cc1ccc(C)c(C)c1 [compound 99, 2-(3,4-dimethylphenyl)-N-[(2S)-2-hydroxy-2-(3-pyridyl)ethyl]-N-propyl-acetamide] |
| < 6.00 | CCCN(C[C@@H](O)c1cccnc1)C(=O)c1nc2cc(Cl)c(Cl)cc2[nH]1 [compound 101, 5,6-dichloro-N-[(2S)-2-hydroxy-2-(3-pyridyl)ethyl]-N-propyl-1 H-benzimidazole-2-carboxamide] |
| < 6.00 | CCCN(CC(O)c1ccc(OC)nc1)C(=O)Cc1ccc(Cl)c(Cl)c1 (stereo not shown) [compound 102, 2-(3,4-dichlorophenyl)-N-[2-hydroxy-2-(6-methoxy-3-pyridyl)ethyl]-N-propyl-acetamide] |
| < 6.00 | CCCN(CC(O)c1cncc(Br)c1)C(=O)Cc1ccc(Cl)c(Cl)c1 (stereo not shown) [compound 103, N-[2-(5-bromo-3-pyridyl)-2-hydroxyethyl]-2-(3,4-dichlorophenyl)-N-propyl-acetamide] |
| < 6.00 | CCCN(C[C@@H](O)c1cccnc1)C(=O)Cc1cncnc1 [compound 104, N-[(2S)-2-hydroxy-2-(3-pyridyl)ethyl]-N-propyl-2-pyrimidin-5-yl-acetamide] |
| ≥ 7.00 | CCCN(C[C@@H](O)c1cccnc1)C(=O)Cc1ccc(C(F)(F)F)c(F)c1 [compound 105, 2-[3-fluoro-4-(trifluoromethyl)phenyl]-N-[(2S)-2-hydroxy-2-(3-pyridyl)ethyl]-N-propyl-acetamide] |
| 6.00 to 7.00 | CCCN(C[C@@H](O)c1cccnc1)C(=O)Cc1ccc(C(F)(F)F)cn1 [compound 106, N-[(2S)-2-hydroxy-2-(3-pyridyl)ethyl]-N-propyl-2-[5-(trifluoromethyl)-2-pyridyl]acetamide] |
| ≥ 7.00 | CCCN(C[C@@H](O)c1cccnc1)C(=O)N1Cc2cc(Cl)c(Cl)cc2C1 [compound 107, 5,6-dichloro-N-[(2S)-2-hydroxy-2-(3-pyridyl)ethyl]-N-propyl-isoindoline-2-carboxamide] |
| < 6.00 | CCCN(C[C@@H](O)c1cccnc1)C(=O)Cc1ccc(F)cn1 [compound 108, 2-(5-fluoro-2-pyridyl)-N-[(2S)-2-hydroxy-2-(3-pyridyl)ethyl]-N-propyl-acetamide] |

| pIC50 | Structure (SMILES) |
| --- | --- |
| ≥ 7.00 | CCCN(CC(O)c1cnccc1OC)C(=O)Cc1ccc(Cl)c(Cl)c1 (stereo not shown) [compound 109, 2-(3,4-dichlorophenyl)-N-[2-hydroxy-2-(4-methoxy-3-pyridyl)ethyl]-N-propyl-acetamide] |
| 6.00 to 7.00 | CCCN(C[C@@H](O)c1cccnc1)C(=O)C1Cc2cc(F)c(F)cc2C1 [compound 110, 5,6-difluoro-N-[(2S)-2-hydroxy-2-(3-pyridyl)ethyl]-N-propyl-indane-2-carboxamide] |
| < 6.00 | CCCN(CC(O)c1cncc(C#N)c1)C(=O)Cc1ccc(Cl)c(Cl)c1 (stereo not shown) [compound 111, N-[2-(5-cyano-3-pyridyl)-2-hydroxyethyl]-2-(3,4-dichlorophenyl)-N-propyl-acetamide] |
| 6.00 to 7.00 | CCCN(CC(O)c1cncc(F)c1)C(=O)Cc1ccc(C(F)(F)F)nc1 (stereo not shown) [compound 112, N-[2-(5-fluoro-3-pyridyl)-2-hydroxyethyl]-N-propyl-2-[6-(trifluoromethyl)-3-pyridyl]acetamide] |
| < 6.00 | CCCN(CC(O)c1cnccn1)C(=O)Cc1ccc(C(F)(F)F)nc1 (stereo not shown) [compound 113] |
| < 6.00 | CCCN(CC(O)c1ccc(C(F)(F)F)nc1)C(=O)Cc1ccc(Cl)c(Cl)c1 (stereo not shown) [compound 114, 2-(3,4-dichlorophenyl)-N-[2-hydroxy-2-[6-(trifluoromethyl)-3-pyridyl]ethyl]-N-propyl-acetamide] |
| < 6.00 | CCCN(CC(O)c1ccc(=O)[nH]c1)C(=O)Cc1ccc(Cl)c(Cl)c1 (stereo not shown) [compound 115, 2-(3,4-dichlorophenyl)-N-[2-hydroxy-2-(6-oxo-1 H-pyridin-3-yl)ethyl]-N-propyl-acetamide] |
| 6.00 to 7.00 | CCCN(CC(O)c1cccnn1)C(=O)Cc1ccc(OC(F)(F)F)c(Cl)c1 (stereo not shown) [compound 116] |
| < 6.00 | CCCN(CC(O)c1cccnc1)C(=O)C(C)c1ccc(Cl)c(Cl)c1 (stereo not shown) [compound 117, 2-(3,4-dichlorophenyl)-N-[2-hydroxy-2-(3-pyridyl)ethyl]-N-propyl-propanamide] |
| < 6.00 | CCCN(C[C@@H](O)c1cccnc1)C(=O)Cc1cccc2ncsc12 [compound 118, 2-(1,3-benzothiazol-7-yl)-N-[(2S)-2-hydroxy-2-(3-pyridyl)ethyl]-N-propyl-acetamide] |
| ≥ 7.00 | CCCN(C[C@@H](O)c1cccnc1)C(=O)Cc1ccc(C#N)c(F)c1 [compound 119, 2-(4-cyano-3-fluoro-phenyl)-N-[(2S)-2-hydroxy-2-(3-pyridyl)ethyl]-N-propyl-acetamide] |
| ≥ 7.00 | CCCN(C[C@@H](O)c1cccnc1)C(=O)C1Cc2ccc(Cl)c(Cl)c2C1 (stereo partly drawn) [compound 120, 4,5-dichloro-N-[(2S)-2-hydroxy-2-(3-pyridyl)ethyl]-N-propyl-indane-2-carboxamide] |
| < 6.00 | CCCN(CC(O)c1ccc(=O)n(C)c1)C(=O)Cc1ccc(Cl)c(Cl)c1 (stereo not shown) [compound 121, 2-(3,4-dichlorophenyl)-N-[2-hydroxy-2-(1-methyl-6-oxo-3-pyridyl)ethyl]-N-propyl-acetamide] |
| < 6.00 | CCCN(C(=O)Cc1ccc(Cl)c(Cl)c1)C(CO)c1ccc(=O)n(C)c1 (stereo not shown) [compound 122, 2-(3,4-dichlorophenyl)-N-[2-hydroxy-1-(1-methyl-6-oxo-3-pyridyl)ethyl]-N-propyl-acetamide] |
| < 6.00 | CCCN(CC(O)c1cccnc1)C(=O)Cc1cccnc1 (stereo not shown) [compound 123, N-[2-hydroxy-2-(3-pyridyl)ethyl]-N-propyl-2-(3-pyridyl)acetamide] |
| ≥ 7.00 | CCCN(C[C@@H](O)c1cccnc1)C(=O)Cc1cnc(C(F)(F)F)nc1 [compound 124, N-[(2S)-2-hydroxy-2-(3-pyridyl)ethyl]-N-propyl-2-[2-(trifluoromethyl)pyrimidin-5-yl]acetamide] |
| 6.00 to 7.00 | CCCN(CC(O)c1cncc(F)c1)C(=O)Cc1ccc(Cl)c(Cl)c1 (stereo not shown) [compound 126, 2-(3,4-dichlorophenyl)-N-[2-(5-fluoro-3-pyridyl)-2-hydroxyethyl]-N-propyl-acetamide] |
| < 6.00 | CCCN(C[C@@H](O)c1cccnc1)C(=O)Cc1ccnc(C(F)(F)F)c1 [compound 127, N-[(2S)-2-hydroxy-2-(3-pyridyl)ethyl]-N-propyl-2-[2-(trifluoromethyl)-4-pyridyl]acetamide] |
| ≥ 7.00 | CCCN(C[C@@H](O)c1cccnc1)C(=O)C1Cc2cnc(C(F)(F)F)cc2C1 (stereo partly drawn) [compound 128, N-[(2S)-2-hydroxy-2-(3-pyridyl)ethyl]-N-propyl-3-(trifluoromethyl)-6,7-dihydro-5H-cyclopenta[c]pyridine-6-carboxamide] |
| 6.00 to 7.00 | CCCN(CC(O)c1cnccn1)C(=O)C1Cc2cc(Cl)c(Cl)cc2C1 (stereo not shown) [compound 129] |
| ≥ 7.00 | CCCN(C[C@@H](O)c1cccnc1)C(=O)Cc1cnc(C(C)(C)C)nc1 [compound 130, 2-(2-tert-butylpyrimidin-5-yl)-N-[(2S)-2-hydroxy-2-(3-pyridyl)ethyl]-N-propyl-acetamide] |

| Structure (SMILES) | pIC50 |
| --- | --- |
| CCCN(C[C@@H](O)c1cccnc1)C(=O)Cc1ccc(C#N)c(Cl)c1 [compound 100, 2-(3-chloro-4-cyano-phenyl)-N-[(2S)-2-hydroxy-2-(3-pyridyl)ethyl]-N-propyl-acetamide] | ≥ 7.00 |
